IC50 data for 15 molecules are collected here from patent US20140228349A1, “5,7-SUBSTITUTED-IMIDAZO[1,2-C]PYRIMIDINES” (Array BioPharma Inc., priority 2011, published 2014).

What is called IC50 is the midpoint of a concentration-inhibition curve. Low values mean greater potency in that assay, high ones weaker potency in that assay.

Holding throughout (type): biochemical
One assay addresses T1, Human Tyk2 kinase domain (Homo sapiens, UniProt P29597).
T1 construct: comprising amino acids 886 to 1187; His10 (10 histidine residues) (C, cleaved yes); made in house
T1 sequence (P29597 886-1187): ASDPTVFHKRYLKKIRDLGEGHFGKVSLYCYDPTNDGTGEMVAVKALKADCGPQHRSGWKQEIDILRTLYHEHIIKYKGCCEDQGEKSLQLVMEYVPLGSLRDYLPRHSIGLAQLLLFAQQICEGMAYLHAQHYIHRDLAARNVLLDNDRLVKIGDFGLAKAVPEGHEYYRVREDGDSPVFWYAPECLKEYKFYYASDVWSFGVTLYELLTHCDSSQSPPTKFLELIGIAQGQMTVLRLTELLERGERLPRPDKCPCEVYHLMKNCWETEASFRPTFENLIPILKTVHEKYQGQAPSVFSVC
As to the kind of experiment: Tyk2 Inhibition Assay (Omnia kinase fluorescence peptide substrate). Conditions: averaged IC50 ranges; 10 μM (Km app) or 1 mM ATP, 2 nM Tyk2. The essentials:
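Phosphorylation of 8 μM Omnia Y12 peptide followed kinetically by Sox fluorescence, ex 360/em 485 nm, every 50 s for 45 min. Enzyme: 2 nM Tyk2 kinase domain (aa 886–1187, His tag removed); ATP at 10 μM (Km app) or 1 mM; buffer HEPES pH 7.4 with MgCl2, Triton X-100, DTT. 10-point curves up to 10 μM, IC50 from 4-parameter logistic fit.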

The target in a further assay is T2, JAK1 (Homo sapiens, UniProt P23458).
T2 construct: purchased Invitrogen Corporation, Carlsbad, Calif; IVGN PV4775
As to the kind of experiment: JAK1 Inhibition Assay (Omnia kinase fluorescence peptide substrate). As to conditions: averaged IC50 ranges; 40 μM (Km app) or 1 mM ATP, 15 nM JAK1. The gist of the method:
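15 nM JAK1, 8 μM Omnia Y12 peptide, 40 μM (Km app) or 1 mM ATP; 25 mM HEPES pH 7.4, 10 mM MgCl2, 2% DMSO. Fluorescence (ex 360/em 485 nm) read every 50 s over 45 min. IC50 by 4-parameter fit of percent of control, top dose 10 μM.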

The next assay concerns the target T3, JAK2 (Homo sapiens, UniProt O60674).
T3 construct: purchased Invitrogen Corporation, Carlsbad, Calif; IVGN PV4288
Description: JAK2 Inhibition Assay (Omnia kinase fluorescence peptide substrate). Conditions: averaged IC50 ranges; 25 μM (Km app) or 1 mM ATP, 5 nM JAK2.

For another assay, the target named is T4, JAK3 (Homo sapiens, UniProt P52333).
T4 construct: purchased Invitrogen Corporation, Carlsbad, Calif; IVGN PV4080
T4 sequence (P52333 1-1124): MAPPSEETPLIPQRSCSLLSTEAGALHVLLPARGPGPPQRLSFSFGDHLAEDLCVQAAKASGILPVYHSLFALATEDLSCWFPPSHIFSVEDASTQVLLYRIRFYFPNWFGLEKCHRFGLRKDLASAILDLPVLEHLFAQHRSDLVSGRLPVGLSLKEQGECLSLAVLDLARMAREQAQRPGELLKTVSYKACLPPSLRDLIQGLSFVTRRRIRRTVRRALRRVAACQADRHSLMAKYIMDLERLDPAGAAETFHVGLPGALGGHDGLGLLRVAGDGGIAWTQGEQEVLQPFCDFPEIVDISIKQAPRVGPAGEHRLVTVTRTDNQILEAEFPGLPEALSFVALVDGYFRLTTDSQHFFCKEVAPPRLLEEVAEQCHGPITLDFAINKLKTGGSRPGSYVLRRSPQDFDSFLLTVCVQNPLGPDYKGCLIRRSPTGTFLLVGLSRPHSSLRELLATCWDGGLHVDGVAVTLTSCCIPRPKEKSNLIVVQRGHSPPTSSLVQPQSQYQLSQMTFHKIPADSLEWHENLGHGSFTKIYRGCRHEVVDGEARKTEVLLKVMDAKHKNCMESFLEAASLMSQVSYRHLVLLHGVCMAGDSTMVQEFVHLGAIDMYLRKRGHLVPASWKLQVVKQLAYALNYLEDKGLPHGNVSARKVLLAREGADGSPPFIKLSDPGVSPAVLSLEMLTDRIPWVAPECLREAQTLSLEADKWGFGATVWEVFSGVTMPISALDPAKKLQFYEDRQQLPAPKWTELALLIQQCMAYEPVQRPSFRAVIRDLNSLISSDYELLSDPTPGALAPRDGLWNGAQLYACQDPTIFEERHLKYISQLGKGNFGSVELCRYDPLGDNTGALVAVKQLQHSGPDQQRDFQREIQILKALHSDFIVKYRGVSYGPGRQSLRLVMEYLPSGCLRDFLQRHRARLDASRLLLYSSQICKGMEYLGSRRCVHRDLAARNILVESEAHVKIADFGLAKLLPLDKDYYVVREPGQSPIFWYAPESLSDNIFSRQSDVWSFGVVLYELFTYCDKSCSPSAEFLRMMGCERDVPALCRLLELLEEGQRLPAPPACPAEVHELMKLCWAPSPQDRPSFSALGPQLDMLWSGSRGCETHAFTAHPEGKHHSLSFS
Description: JAK3 Inhibition Assay (Omnia kinase fluorescence peptide substrate). As to conditions: averaged IC50 ranges; 10 μM (Km app) or 1 mM ATP, 2.5 nM JAK3. The essentials:
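IC50 is the concentration giving 50 percent of control on a 4-parameter logistic fit of 10-point, 3-fold dilutions from a 10 μM top dose, at 2% final DMSO. Kinetic Sox fluorescence (360/485 nm) was monitored every 50 s for 45 min. Mix: JAK3 2.5 nM, Omnia Y7 peptide 10 μM, ATP 10 μM (Km app) or 1 mM, in HEPES pH 7.4 buffer with MgCl2, Triton X-100 and DTT.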

T3 sequence (O60674 whole entry): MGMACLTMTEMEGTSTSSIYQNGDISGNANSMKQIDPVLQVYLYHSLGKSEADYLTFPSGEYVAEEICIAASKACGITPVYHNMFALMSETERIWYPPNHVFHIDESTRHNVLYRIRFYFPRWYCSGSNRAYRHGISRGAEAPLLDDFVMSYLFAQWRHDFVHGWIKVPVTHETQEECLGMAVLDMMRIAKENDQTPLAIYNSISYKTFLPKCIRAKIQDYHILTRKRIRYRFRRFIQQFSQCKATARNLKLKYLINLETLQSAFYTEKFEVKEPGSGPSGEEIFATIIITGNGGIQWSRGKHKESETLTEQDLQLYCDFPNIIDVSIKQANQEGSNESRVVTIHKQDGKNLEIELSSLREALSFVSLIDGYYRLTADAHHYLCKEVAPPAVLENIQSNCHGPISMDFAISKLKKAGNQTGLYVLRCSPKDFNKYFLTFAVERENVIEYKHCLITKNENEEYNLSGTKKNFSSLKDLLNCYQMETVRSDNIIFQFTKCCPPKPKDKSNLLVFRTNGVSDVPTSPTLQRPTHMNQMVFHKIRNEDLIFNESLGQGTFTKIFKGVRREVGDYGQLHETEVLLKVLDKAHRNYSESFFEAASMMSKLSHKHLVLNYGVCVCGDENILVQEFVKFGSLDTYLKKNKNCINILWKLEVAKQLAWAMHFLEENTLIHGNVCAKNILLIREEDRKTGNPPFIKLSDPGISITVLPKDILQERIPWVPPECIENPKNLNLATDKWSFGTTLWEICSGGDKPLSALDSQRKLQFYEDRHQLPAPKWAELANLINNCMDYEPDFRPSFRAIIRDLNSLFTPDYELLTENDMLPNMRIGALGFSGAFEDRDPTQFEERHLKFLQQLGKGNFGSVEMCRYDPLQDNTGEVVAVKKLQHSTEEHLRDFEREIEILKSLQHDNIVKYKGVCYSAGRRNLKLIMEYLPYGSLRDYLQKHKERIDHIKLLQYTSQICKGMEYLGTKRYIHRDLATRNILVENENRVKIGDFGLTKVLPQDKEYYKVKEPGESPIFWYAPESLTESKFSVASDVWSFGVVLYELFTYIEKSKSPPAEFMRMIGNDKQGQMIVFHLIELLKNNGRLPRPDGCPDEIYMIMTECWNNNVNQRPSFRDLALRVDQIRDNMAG
T2 sequence (P23458 whole entry): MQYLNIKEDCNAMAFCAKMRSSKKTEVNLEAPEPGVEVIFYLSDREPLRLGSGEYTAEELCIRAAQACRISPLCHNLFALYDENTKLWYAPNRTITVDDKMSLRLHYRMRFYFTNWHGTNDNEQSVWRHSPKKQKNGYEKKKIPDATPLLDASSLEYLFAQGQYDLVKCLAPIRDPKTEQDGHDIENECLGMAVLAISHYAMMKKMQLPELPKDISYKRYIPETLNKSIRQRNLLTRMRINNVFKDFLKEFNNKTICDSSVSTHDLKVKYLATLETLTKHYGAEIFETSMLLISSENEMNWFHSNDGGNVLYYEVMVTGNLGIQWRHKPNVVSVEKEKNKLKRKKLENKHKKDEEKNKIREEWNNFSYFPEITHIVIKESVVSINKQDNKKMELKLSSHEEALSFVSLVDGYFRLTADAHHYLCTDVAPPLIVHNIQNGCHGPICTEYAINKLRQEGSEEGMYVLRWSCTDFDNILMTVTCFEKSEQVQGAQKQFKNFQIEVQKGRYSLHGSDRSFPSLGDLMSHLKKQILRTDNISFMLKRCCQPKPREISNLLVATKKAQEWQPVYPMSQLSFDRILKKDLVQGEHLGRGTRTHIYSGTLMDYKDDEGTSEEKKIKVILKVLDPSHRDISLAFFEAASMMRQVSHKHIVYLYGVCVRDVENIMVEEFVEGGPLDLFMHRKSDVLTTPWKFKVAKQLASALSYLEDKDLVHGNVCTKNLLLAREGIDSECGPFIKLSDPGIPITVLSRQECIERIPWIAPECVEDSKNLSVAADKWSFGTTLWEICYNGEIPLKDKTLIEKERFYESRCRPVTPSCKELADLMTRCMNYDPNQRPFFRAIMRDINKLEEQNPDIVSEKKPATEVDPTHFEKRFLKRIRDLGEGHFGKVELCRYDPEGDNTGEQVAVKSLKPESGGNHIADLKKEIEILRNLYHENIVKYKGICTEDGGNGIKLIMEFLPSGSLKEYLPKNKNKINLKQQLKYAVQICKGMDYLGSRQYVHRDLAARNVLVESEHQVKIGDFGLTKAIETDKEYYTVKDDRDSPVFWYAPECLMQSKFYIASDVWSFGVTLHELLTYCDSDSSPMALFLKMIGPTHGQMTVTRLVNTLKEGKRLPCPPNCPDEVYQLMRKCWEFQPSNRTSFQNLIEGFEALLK

Regarding `CSCCn1cc(-c2nc(-c3cnn(C)c3)cc3nccn23)cn1` [Example 21, 7-(1-methyl-1H-pyrazol-4-yl)-5-(1-(2-(methylthio)ethyl)-1H-pyrazol-4-yl)imidazo[1,2-c]pyrimidine], the IC50 on Human Tyk2 kinase domain was 10 to 100 nM; against JAK1, 100 to 1000 nM; against JAK2, 10 to 100 nM; against JAK3, 100 to 1000 nM.

Take `CC(C1CC1)n1cc(-c2nc(-c3cnn(C)c3)cc3nccn23)cn1` (stereo not drawn) [Example 14, 5-(1-(1-Cyclopropylethyl)-1H-pyrazol-4-yl)-7-(1-methyl-1H-pyrazol-4-yl)imidazo[1,2-c]pyrimidine]: the IC50 is 10 to 100 nM against Human Tyk2 kinase domain, above 1000 nM against JAK1, 100 to 1000 nM at JAK2 and above 1000 nM on JAK3.

For the molecule `CCC(CCCO)n1cc(-c2nc(-c3cnn(C)c3)cc3nccn23)cn1` (stereo not drawn) [Example 65, 4-(4-(7-(1-methyl-1H-pyrazol-4-yl)imidazo[1,2-c]pyrimidin-5-yl)-1H-pyrazol-1-yl)hexan-1-ol], the 50% inhibitory concentration (IC50) against Human Tyk2 kinase domain was in the range of 10 to 100 nM; against JAK1, 100 to 1000 nM; at JAK2 it was 100 to 1000 nM; at JAK3 it was 100 to 1000 nM.

As for `Cn1cc(-c2cc3nccn3c(-c3cnn(C(CC=C(F)F)C4CC4)c3)n2)cn1` (stereo not drawn) [Example 54, 5-(1-(1-cyclopropyl-4,4-difluorobut-3-en-1-yl)-1H-pyrazol-4-yl)-7-(1-methyl-1H-pyrazol-4-yl)imidazo[1,2-c]pyrimidine], the IC50 against Human Tyk2 kinase domain is below 10 nM; at JAK1 it was 10 to 100 nM; against JAK2, 10 to 100 nM; against JAK3, 10 to 100 nM.

Turning to `Cn1cc(-c2cc3nccn3c(-c3cnn(C4(CCF)CN(S(=O)(=O)CC5CC5)C4)c3)n2)cn1` [Example 87, 5-(1-(1-((cyclopropylmethyl)sulfonyl)-3-(2-fluoroethyl)azetidin-3-yl)-1H-pyrazol-4-yl)-7-(1-methyl-1H-pyrazol-4-yl)imidazo[1,2-c]pyrimidine], the IC50 against Human Tyk2 kinase domain, at JAK1, against JAK2 and on JAK3 was 100 to 1000 nM each time.

With `COCCC(C1CCCCC1)n1cc(-c2nc(-c3cnn(C)c3)cc3nccn23)cn1` (stereo not drawn) [Example 71, 5-(1-(1-cyclohexyl-3-methoxypropyl)-1H-pyrazol-4-yl)-7-(1-methyl-1H-pyrazol-4-yl)imidazo[1,2-c]pyrimidine], the IC50 at Human Tyk2 kinase domain, on JAK1, at JAK2 and against JAK3 was above 1000 nM throughout.

Regarding `Cn1cc(-c2cc3nccn3c(-c3ccn([C@@H](CCF)[C@@H]4CC4(F)F)c3)n2)cn1` [Example 24, 5-(1-((S)-1-((S)-2,2-difluorocyclopropyl)-3-fluoropropyl)-1H-pyrrol-3-yl)-7-(1-methyl-1H-pyrazol-4-yl)imidazo[1,2-c]pyrimidine], the IC50 was below 10 nM against Human Tyk2 kinase domain, 10 to 100 nM against JAK1, 10 to 100 nM against JAK2 and 100 to 1000 nM against JAK3.

As to `O=S(=O)(N1CC(CCF)(n2cc(-c3nc(-c4cnn(C5CCOCC5)c4)cc4nccn34)cn2)C1)C(F)(F)F` [Example 60, 5-(1-(3-(2-fluoroethyl)-1-((trifluoromethyl)sulfonyl)azetidin-3-yl)-1H-pyrazol-4-yl)-7-(1-(tetrahydro-2H-pyran-4-yl)-1H-pyrazol-4-yl)imidazo[1,2-c]pyrimidine], the IC50 was below 10 nM on Human Tyk2 kinase domain, 10 to 100 nM against JAK1, below 10 nM against JAK2 and 100 to 1000 nM on JAK3.

As to `C#CCC(C1CC1)n1cc(-c2nc(-c3cnn(C)c3)cc3nccn23)cn1` (stereo not drawn) [Example 55, 5-(1-(1-cyclopropylbut-3-yn-1-yl)-1H-pyrazol-4-yl)-7-(1-methyl-1H-pyrazol-4-yl)imidazo[1,2-c]pyrimidine], the IC50 was below 10 nM on Human Tyk2 kinase domain, 100 to 1000 nM against JAK1, 10 to 100 nM against JAK2 and 100 to 1000 nM at JAK3.

Turning to `Cn1cc(-c2cc3nccn3c(-c3ccn(C4(CCF)CN(CC#N)C4)c3)n2)cn1` [Example 22, 2-(3-(2-fluoroethyl)-3-(3-(7-(1-methyl-1H-pyrazol-4-yl)imidazo[1,2-c]pyrimidin-5-yl)-1H-pyrrol-1-yl)azetidin-1-yl)acetonitrile], the half-inhibitory concentration (IC50) is 10 to 100 nM on Human Tyk2 kinase domain, 100 to 1000 nM at JAK1, 100 to 1000 nM at JAK2 and 100 to 1000 nM against JAK3.

Take `Cn1cc(-c2cc3nccn3c(-c3cnn(C4(CCF)CN(CC(F)(F)F)C4)c3)n2)cn1` [Example 19, 5-(1-(3-(2-Fluoroethyl)-1-(2,2,2-trifluoroethyl)azetidin-3-yl)-1H-pyrazol-4-yl)-7-(1-methyl-1H-pyrazol-4-yl)imidazo[1,2-c]pyrimidine]: the half-maximal inhibitory concentration (IC50) on Human Tyk2 kinase domain is 10 to 100 nM; against JAK1 it was above 1000 nM; on JAK2, 100 to 1000 nM; on JAK3 it was above 1000 nM.

Turning to `Cn1cc(-c2cc3nccn3c(-c3cnn(C4(CC=C(F)F)CN(S(=O)(=O)C(F)(F)F)C4)c3)n2)cn1` [Example 32, 5-(1-(3-(3,3-difluoroallyl)-1-((trifluoromethyl)sulfonyl)azetidin-3-yl)-1H-pyrazol-4-yl)-7-(1-methyl-1H-pyrazol-4-yl)imidazo[1,2-c]pyrimidine], the IC50 against Human Tyk2 kinase domain is below 10 nM; against JAK1, below 10 nM; against JAK2, below 10 nM; against JAK3 it was 10 to 100 nM.

For `Cn1cc(-c2cc3nccn3c(-c3cnn(C(C/C=C\F)C4CC4)c3)n2)cn1` (stereo not drawn) [Example 44, (Z)-5-(1-(1-cyclopropyl-4-fluorobut-3-en-1-yl)-1H-pyrazol-4-yl)-7-(1-methyl-1H-pyrazol-4-yl)imidazo[1,2-c]pyrimidine], the IC50 was in the range of 10 to 100 nM against Human Tyk2 kinase domain, 100 to 1000 nM against JAK1, 10 to 100 nM against JAK2 and 100 to 1000 nM against JAK3.

For the molecule `Cn1cc(-c2cc3nccn3c(-c3cnn(C(CCO)C4CC4)c3)n2)cn1` (stereo not drawn) [Example 13, 3-cyclopropyl-3-(4-(7-(1-methyl-1H-pyrazol-4-yl)imidazo[1,2-c]pyrimidin-5-yl)-1H-pyrazol-1-yl)propan-1-ol], the concentration for half-maximal inhibition (IC50) at Human Tyk2 kinase domain was 100 to 1000 nM; against JAK1, above 1000 nM; against JAK2, 100 to 1000 nM; against JAK3, above 1000 nM.

Take `C#CCCn1cc(-c2nc(-c3cnn(C)c3)cc3nccn23)cn1` [Example 8, 5-(1-(But-3-yn-1-yl)-1H-pyrazol-4-yl)-7-(1-methyl-1H-pyrazol-4-yl)imidazo[1,2-c]pyrimidine]: the IC50 against Human Tyk2 kinase domain lay in the range of 10 to 100 nM; on JAK1 it was 100 to 1000 nM; against JAK2 it was 10 to 100 nM; at JAK3, 100 to 1000 nM.
